Results: US20120010266A1, “TBC1D7 AS TUMOR MARKER AND THERAPEUTIC TARGET FOR CANCER” (Oncotherapy Science Inc.,, priority 2008, published 2012)
Read-outs that look alike come from different tables or passages of the source. No end group written: not given here.

Columns and labels:
[1] = test system: LC319 and A549 cell lines; test: Colony formation assay (Giemsa staining) of lung cancer cells transfected with siRNAs against TBC1D7; assay type: cell-based, human; conditions: cultured 7 days after transfection, siRNA 100 nM
Description: (§1) Small interfering RNA (siRNA) duplexes (Dharmacon, Inc.) (100 nM) were transfected into a NSCLC cell line, A549 and esophageal cancer cell line, TE9, using […] Lipofectamine 2000 (Invitrogen) following the manufacturer's protocol. The transfected cells were cultured for 7 days, and the number of colonies was counted by Giemsa staining, and viability of cells was evaluated by 3-(4,5-dimethylthiazol-2-yl)-2,5-diphenyltetrazolium bromide (MTT) assay (cell counting kit-8 solution; Dojindo Laboratories), at 7 days after transfection. To confirm suppression of TBC1D7 expression, semiquantitative RT-PCR was carried out with synthesized primers specific for TBC1D7 described above. SiRNA duplexes against human TBC1D7, si-TBC1D7-#1: siGenome duplexes 1 [D-021140-01: […]] (SEQ ID NO: 3 for target sequence SEQ ID NO.: 18) and si-TBC1D7-#2: siGenome duplexes 4 [D-021140-4: […]] […]
(§2) Small interfering RNA (siRNA) duplexes (100 nM) were transfected into a NSCLC cell line, A549 and LC319, using 24 microL of Lipofectamine 2000 (Invitrogen) following the manufacturer's protocol. The transfected cells were cultured for 7 days, and the number of colonies was counted by Giemsa staining, and viability of cells was evaluated by 3-(4,5-dimethylthiazol-2-yl)-2,5-diphenyltetrazolium bromide (MTT) assay (cell counting kit-8 solution; Dojindo Laboratories), at 7 days after transfection. […]

lung cancer LC319 cells [2] = test: Flow cytometric cell cycle analysis after si-TBC1D7 transfection; assay type: cell-based, human; conditions: 48 to 96 hours after transfection
Description: Cells were collected in PBS, and fixed in 70% cold ethanol for 30 minutes. After treatment with 100 micro g/mL RNase (Sigma/Aldrich, St. Louis, Mo.), the cells were stained with 50 micro g/mL propidium iodide (Sigma/Aldrich, St. Louis, Mo.) in PBS. Flow cytometry was done on a Becton Dickinson FACScan and analyzed by ModFit software (Verity Software House, Inc., Topsham, Me.). The cells selected from at least 10,000 ungated cells were analyzed for DNA content.

TBC1D7 = test: RNA interference assay: knockdown of TBC1D7 expression, semiquantitative RT-PCR; assay type: cell-based, human; conditions: LC319 and A549 cells; siRNA duplexes 100 nM transfected; versus control siRNAs (si-EGFP, si-LUC)
Description: Total RNA was extracted from cultured cells and clinical tissues using Trizol reagent (Life Technologies, Inc.) according to the manufacturer's protocol. Extracted RNAs were treated with DNase I (Nippon Gene) and reversely-transcribed using oligo (dT) primer and SuperScript II reverse transcriptase (Invitrogen). […]
as §2, with “duplexes (Dharmacon, Inc.)” for “duplexes”, “esophageal cancer cell line, TE9,” for “LC319,”, “[…]” for “24 microL”
as §2

[3] = test system: LC319 and A549 cell lines; test: MTT assay of lung cancer cells transfected with siRNAs against TBC1D7; assay type: cell-based, human; conditions: 7 days after transfection, siRNA 100 nM
Description: as §1, §2

lung cancer LC319 cells [4] = test: Dominant-negative peptide assay, MTT, LC319 cells; assay type: cell-based, human; conditions: peptide 10, 15 or 20 microM for 3 days
From the text: (§3) Twenty-amino-acid sequence derived from minimized TSC1-binding domain in TBC1D7 (codons 112-171; see FIG. 5B) was covalently linked at its N-terminus to a membrane transducing 11 poly-arginine sequence (11R) as described elsewhere (Hayama S, Daigo Y, Kato T, et al. Cancer Res 2006; 66:10339-48, Hayama S, Daigo Y, Yamabuki T, et al. Cancer Res 2007; 67:4113-22). Three dominant-negative peptides were synthesized covering the codons 112-171 region: 11R-TBC112-131, RRRRRRRRRRR-GGG-[…] (SEQ ID NO.:23); 11R-TBC132-151, RRRRRRRRRRR-GGG-[…] (SEQ ID NO.:24); 11R-TBC152-171 RRRRRRRRRRR-GGG-[…] (SEQ ID NO.:25). Peptides were purified by preparative reverse-phase high-performance liquid chromatography to make >95% purity. […] The viability of cells was evaluated by MTT assay at 3 days after the treatment.

[5] = test system: normal human lung fibroblast-derived CCD19Lu cells; assay type: cell-based; conditions: CCD19Lu cells in which TBC1D7 expression was hardly detectable, peptide 10, 15 or 20 microM for 3 days
From the text: as §3

[6] = target: T1, endogenous TSC1 protein (human, lung cancer LC319 cells) (human, UniProt Q92574 1-1164, limits assumed); test: summary of the immunoprecipitation results in the discussion
T1 construct: Endogenous protein in LC319 cell extracts
T1 sequence: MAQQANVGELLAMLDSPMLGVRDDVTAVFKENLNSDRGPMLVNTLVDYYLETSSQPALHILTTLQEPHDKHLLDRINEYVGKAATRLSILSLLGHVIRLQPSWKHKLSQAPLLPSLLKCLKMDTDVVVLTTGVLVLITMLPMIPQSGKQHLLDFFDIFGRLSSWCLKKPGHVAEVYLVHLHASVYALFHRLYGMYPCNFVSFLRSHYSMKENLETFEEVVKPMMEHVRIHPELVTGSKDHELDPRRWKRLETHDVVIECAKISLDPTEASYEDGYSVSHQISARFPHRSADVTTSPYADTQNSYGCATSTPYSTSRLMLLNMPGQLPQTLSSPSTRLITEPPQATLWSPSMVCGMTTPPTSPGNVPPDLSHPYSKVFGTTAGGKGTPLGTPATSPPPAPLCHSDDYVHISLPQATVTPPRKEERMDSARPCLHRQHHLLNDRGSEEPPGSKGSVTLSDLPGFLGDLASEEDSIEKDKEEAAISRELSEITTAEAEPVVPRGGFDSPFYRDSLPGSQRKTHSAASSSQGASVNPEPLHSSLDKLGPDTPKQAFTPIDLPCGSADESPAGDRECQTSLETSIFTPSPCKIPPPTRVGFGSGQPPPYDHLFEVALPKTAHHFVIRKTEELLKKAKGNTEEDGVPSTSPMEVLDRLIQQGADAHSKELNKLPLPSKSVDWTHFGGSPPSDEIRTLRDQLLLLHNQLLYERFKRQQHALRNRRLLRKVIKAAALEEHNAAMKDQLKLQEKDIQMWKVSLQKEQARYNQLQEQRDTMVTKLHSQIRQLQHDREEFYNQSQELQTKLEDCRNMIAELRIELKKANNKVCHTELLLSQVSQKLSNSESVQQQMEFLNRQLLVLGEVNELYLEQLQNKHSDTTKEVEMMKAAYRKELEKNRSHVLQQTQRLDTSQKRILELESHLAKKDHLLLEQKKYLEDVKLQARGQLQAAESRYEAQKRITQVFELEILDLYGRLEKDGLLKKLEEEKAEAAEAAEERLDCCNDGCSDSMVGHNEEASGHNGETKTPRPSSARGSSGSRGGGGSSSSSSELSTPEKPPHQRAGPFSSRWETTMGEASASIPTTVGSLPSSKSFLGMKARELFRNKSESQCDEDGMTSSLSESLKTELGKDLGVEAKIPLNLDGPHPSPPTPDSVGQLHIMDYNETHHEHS

[7] = target: T1, endogenous TSC1 protein (human, lung …); test: immunoprecipitation experiments using LC319 cells, as the legend of FIG. 5A says
From the text: FIG. 5 depicts identification of TSC1-interacting region in TBC1D7 and inhibition of growth of lung cancer cells by dominant-negative peptides of TBC1D7. A, Left panel, Schematic drawing of six N-terminal Flag-tagged TBC1D7 partial protein constructs lacking either or both of the terminal regions. Right panels, Identification of the region in TBC1D7 that binds to TSC1 by immunoprecipitation experiments using LC319 cells. The TBC1D7₁₁₂₋₁₇₁ construct, which corresponds to a center region in TBC domain, was indicated to be TSC1-interacting region. B, Left top panel, Schematic drawing of three cell permeable peptides of TBC1D7 covering TBC1D7₁₁₂₋₁₇₁ that corresponds to the TSC1-interacting region in TBC1D7. B, Right top panels, Reduction of the complex formation between endogenous TSC1 and endogenous TBC1D7 proteins, detected by immunoprecipitation assay in LC319 cells that were treated with the 11R-TBC₁₅₂₋₁₇₁ peptides. C, MTT assay showing growth suppressive effect of 11R-TBC₁₅₂₋₁₇₁ peptides that were introduced into LC319 cells that expressed both TBC1D7 and TSC1 proteins. Bars, SD of triplicate assays. D, Left panels, Expressions of TBC1D7 and TSC1 proteins in lung cancer cell line LC319 and normal human lung fibroblast-derived CCD19Lu cells, examined by western blot analysis. […]

si-TBC1D7-#1: siRNA duplex against human TBC1D7, GAACAGUGCAGAGAAGAUAUU (SEQ ID NO: 3, target SEQ ID NO: 18), purchased from Dharmacon (chemistry not given here)
number of cells / colonies, colony-formation assay [1]: drastic reduction in the number of cells | number of cells in S phase (lung cancer LC319 cells [2]): continuously decreased | proportion of the cells in G2/M phase (lung cancer LC319 cells [2]): increased | knockdown effect on TBC1D7 expression (RT-PCR) (TBC1D7): knockdown effect was confirmed | number / viability of cells, MTT assay (cell growth) [3]: drastic reduction in the number of cells

RRRRRRRRRRR-GGG-EVFLAIAKAMEEMVEDSVDC (RRRRRRRRRRRGGGEVFLAIAKAMEEMVEDSVDC; a dominant-negative peptide) [11R-TBC1D7132-151]
cell viability / cell growth, MTT assay (lung cancer LC319 cells [4]): no effect on cell growth

RRRRRRRRRRR-GGG-YQLESGKLPRSPSFPLEPDD (RRRRRRRRRRRGGGYQLESGKLPRSPSFPLEPDD; a dominant-negative peptide) [11R-TBC1D7112-131]
cell viability / cell growth, MTT assay (lung cancer LC319 cells [4]): no effect on cell growth

si-TBC1D7-#2: siRNA duplex against human TBC1D7, GAUAAAGUUGUGAGUGGAUUU (SEQ ID NO: 4, target SEQ ID NO: 19), purchased from Dharmacon (chemistry not given here)
number of cells / colonies, colony-formation assay [1]: drastic reduction in the number of cells | knockdown effect on TBC1D7 expression (RT-PCR) (TBC1D7): knockdown effect was confirmed | number / viability of cells, MTT assay (cell growth) [3]: drastic reduction in the number of cells

RRRRRRRRRRRGGGYWITRRFVNQLNTKYRDSLP [11R-TBC1D7152-171]
cell viability of normal cells (off-target toxic effect), MTT assay [5]: no effect on cell viability | cell viability of normal cells (off-target toxic effect), MTT assay ([5]; listed as 11R-TBC152-171): no off-target effect

B1: endogenous TBC1D7 protein (human, lung cancer LC319 cells) (other)
chain: MTEDSQRNFRSVYYEKVGFRGVEEKKSLEILLKDDRLDTEKLCTFSQRFPLPSMYRALVWKVLLGILPPHHESHAKVMMYRKEQYLDVLHALKVVRFVSDATPQAEVYLRMYQLESGKLPRSPSFPLEPDDEVFLAIAKAMEEMVEDSVDCYWITRRFVNQLNTKYRDSLPQLPKAFEQYLNLEDGRLLTHLRMCSAAPKLPYDLWFKRCFAGCLPESSLQRVWDKVVSGSCKILVFVAVEILLTFKIKVMALNSAEKITKFLENIPQDSSDAIVSKAIDLWHKHCGTPVHSS
notes: Endogenous protein in cell extracts; also called TBC1 domain family, member 7
binding result [6]: binds

B2: TBC112-171, N-terminal Flag-tagged TBC1D7 partial protein construct (other, not shown: small tags and cut ends)
chain: YQLESGKLPRSPSFPLEPDDEVFLAIAKAMEEMVEDSVDCYWITRRFVNQLNTKYRDSLP
binding result [7]: binds
